Laboratory results reported in PMC10706420, “A New Drug Discovery Platform: Application to DNA Polymerase Eta and Apurinic/Apyrimidinic Endonuclease 1” (International Journal of Molecular Sciences, 2023).
Like-named read-outs stand apart in the source and are kept apart here.

Columns and labels:
Endonuclease IV = Endonuclease IV (Escherichia coli, UniProt P0A6C1); settings: from IC50 for APE1 and EndoIV
APE1 = target: T1, APE1 (Homo sapiens, UniProt P27695); assay: in-house high-throughput in vitro biochemical assay for APE1 endonuclease activity (fluorescence-based)
T1 construct: made in house
T1 sequence (P27695 whole entry): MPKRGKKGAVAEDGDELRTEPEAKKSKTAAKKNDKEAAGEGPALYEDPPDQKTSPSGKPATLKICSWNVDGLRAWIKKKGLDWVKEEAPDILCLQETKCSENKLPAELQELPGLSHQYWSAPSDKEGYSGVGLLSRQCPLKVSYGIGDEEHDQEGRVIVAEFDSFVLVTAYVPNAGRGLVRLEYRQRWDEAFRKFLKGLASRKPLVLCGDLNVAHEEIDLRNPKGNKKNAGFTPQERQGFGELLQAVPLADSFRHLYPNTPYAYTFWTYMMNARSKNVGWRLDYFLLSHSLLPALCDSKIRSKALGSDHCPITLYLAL

SMILES: CC(=O)Nc1sc2c(c1-c1nc3ccccc3s1)CCN(C(C)C)C2 [Inhibitor III]
- selectivity for APE1 over EndoIV (Endonuclease IV): 3 fold
- IC50 (APE1): 2 µM
- IC50 (APE1; listed as APE1 Inhibitor III): ~2 µM
